From ChEMBL document CHEMBL1156969 (Bioorg Med Chem Lett, 2010)
Active and inactive are the calls of the source. The rule behind the calls is not given here.

Tests used:
[1] = target: Melatonin receptor type 1A (Homo sapiens, UniProt P48039); assay: Displacement of [3H]melatonin from human melatonin MT1 receptor expressed in CHO cells after 60 mins by scintillation counting; format: cell-based
[2] = species on record: Homo sapiens; assay: Selectivity ratio of Ki for human melatonin MT1 receptor to Ki for human melatonin MT2 receptor
[3] = target: T1, Melatonin receptor type 1B (Homo sapiens, UniProt P49286); assay: Displacement of [3H]melatonin from human melatonin MT2 receptor expressed in CHO cells after 60 mins by scintillation counting; format: cell-based
T1 sequence (P49286 whole entry): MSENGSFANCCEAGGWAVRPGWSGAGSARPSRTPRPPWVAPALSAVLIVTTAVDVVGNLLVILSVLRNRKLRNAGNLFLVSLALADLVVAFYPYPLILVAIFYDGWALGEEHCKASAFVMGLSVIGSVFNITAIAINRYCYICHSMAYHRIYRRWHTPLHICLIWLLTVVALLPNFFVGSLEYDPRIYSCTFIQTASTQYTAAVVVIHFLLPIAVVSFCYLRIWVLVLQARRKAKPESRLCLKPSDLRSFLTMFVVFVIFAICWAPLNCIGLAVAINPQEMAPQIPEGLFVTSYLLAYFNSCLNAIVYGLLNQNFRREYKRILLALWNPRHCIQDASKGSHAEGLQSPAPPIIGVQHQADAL

[4] = target: T2, Melatonin receptor type 1B (Homo sapiens) (UniProt P49286); assay: Agonist activity at human MT2 receptor expressed as CHO cells assessed as intracellular Ca2+ accumulation by FLIPR assay; format: functional, cell-based
T2 sequence (whole entry): T1 sequence (P49286 whole entry)

[5] = Lipophilicity, log P of the compound; format: physicochemical; settings: octanol/water

Sequence of Melatonin receptor type 1A (P48039 whole entry): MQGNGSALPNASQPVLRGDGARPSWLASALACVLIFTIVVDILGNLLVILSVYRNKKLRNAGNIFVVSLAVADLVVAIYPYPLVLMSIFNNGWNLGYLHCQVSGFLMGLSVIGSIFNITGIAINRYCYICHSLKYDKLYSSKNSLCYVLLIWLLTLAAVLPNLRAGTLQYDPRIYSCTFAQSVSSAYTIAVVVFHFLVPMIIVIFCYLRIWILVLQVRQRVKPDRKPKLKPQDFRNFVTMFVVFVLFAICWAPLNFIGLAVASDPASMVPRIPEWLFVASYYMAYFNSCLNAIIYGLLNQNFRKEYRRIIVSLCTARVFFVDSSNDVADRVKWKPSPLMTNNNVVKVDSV

Row | Ki [1] | Ratio Ki [2] | Ki [3] | Activity [4] | logP [5] | Compound
1 | 2010 nM | 16.7 | 121 nM |  |  | CCC(=O)NCCCc1ccc(OCc2ccccc2)c(OC)c1
2 |  |  | 0.0326 nM |  |  | COc1cc(COc2ccc(OC)cc2CCCNC(C)=O)cc(OC)c1
3 | 2930 nM | 219 | 13.4 nM |  |  | COc1ccc(OCCc2ccccc2)c(CCCNC(C)=O)c1
4 | 379 nM | 8.22 | 46.2 nM |  |  | COc1ccc(O)c(CCCNC(C)=O)c1
5 | 2700 nM | 97 | 27.9 nM |  |  | COc1ccc(COc2ccc(OC)cc2CCCNC(C)=O)cc1
6 | 8980 nM | 130 | 69.3 nM |  |  | COc1cc(CCCNC(C)=O)ccc1OCc1ccccc1
7 | 879 nM | 18700 | 0.0471 nM |  |  | COc1ccc(OCc2ccccc2)c(CCCNC(C)=O)c1
8 |  |  |  |  | 2.16 | COc1ccc2[nH]cc(CCNC(C)=O)c2c1 [MELATONIN]
9 | 1840 nM | 1150 | 1.61 nM |  |  | COc1ccc(OCc2ccccn2)c(CCCNC(C)=O)c1

Continued, compound first:

Row | Compound | Ki [1] | Ratio Ki [2] | Ki [3] | Activity [4] | logP [5]
10 | COc1cccc(CCCNC(C)=O)c1 | 23.3 nM | 31 | 0.751 nM |  | 
11 | CCC(=O)NCCCc1cccc(OC)c1 | 85.4 nM | 12 | 7.07 nM |  | 
12 | CCCOc1ccc(OC)cc1CCCNC(C)=O | 400 nM | 189 | 2.12 nM |  | 
13 | COc1cccc(COc2ccc(CCCNC(C)=O)cc2OC)c1 | 1460 nM | 13.9 | 105 nM |  | 
14 | CCOc1ccc(OC)cc1CCCNC(C)=O | 183 nM | 116 | 1.59 nM |  | 
15 | COc1ccc(OC)c(CCCNC(C)=O)c1 | 1280 nM | 49.1 | 26.1 nM |  | 
16 | COc1ccc(OCc2ccccc2)c(CCCNC(=O)c2ccccc2)c1 |  |  | 2300 nM |  | 
17 | CCCC(=O)NCCCc1cc(OC)ccc1OCc1ccccc1 | 1170 nM | 1.14e+06 | 0.00103 nM | Active | 
18 | COc1ccc(OCc2ccc(Br)cc2F)c(CCCNC(C)=O)c1 |  |  | 102 nM |  | 
19 | CCC(=O)NCCCc1cc(OC)ccc1OCc1ccccc1 | 263 nM | 473000 | 0.00055 nM | Active | 
20 | COc1cc(CCCNC(C)=O)ccc1O | 257 nM | 20.5 | 12.6 nM |  | 
21 | COc1cccc(COc2ccc(OC)cc2CCCNC(C)=O)c1 | 705 nM |  |  |  | 
22 | COc1ccc(OCCCc2ccccc2)c(CCCNC(C)=O)c1 |  |  | 72.2 nM |  | 
